From patent US20240216395A1, “19-NOR C3,3-DISUBSTITUTED C21 -N-PYRAZOLYL STEROID FOR USE IN TREATING MAJOR DEPRESSIVE DISORDER AND […]” (priority 2021, published 2024)
Several values for one entry are separate records, joined by “and”; a condition that tells them apart may be missing. Equal entries are not always repeated.

Tested on: adult subjects with major depressive disorder (MDD)
Experiment: Phase 3 placebo-controlled study of Compound (1) 50 mg QD for 14 days in MDD (NCT04442490): efficacy scales
Assay type: in vivo, human
Details: for Day 15 HAMD-17 improvement maintained on average: Day 15 HAMD-17 responders; for Day 15 MADRS improvement maintained on average: Day 15 MADRS responders
Text: Title of Study: A Phase 3, Multicenter, Double-Blind, Randomized, Placebo-Controlled Study Evaluating the Efficacy of Compound (1) in the Treatment of Adult Subjects with Major Depressive Disorder
This was a randomized, double-blind, parallel-group, placebo-controlled study in subjects with MDD. The diagnosis of MDD was made according to Structured Clinical Interview for Diagnostic and DSM-5 Clinical Trial Version (SCID-5-CT) performed by a qualified healthcare professional.
Eligible subjects were stratified based on use of antidepressant treatment (current/stable or not treated/withdrawn ≥60 days) and randomized within each stratum to one of 2 treatment groups (Compound (1)—50 mg or matching placebo) in a 1:1 ratio. Subjects self-administered study drug once daily at approximately 8 PM with fat-containing food (e.g., within 1 hour of an evening meal which contains fat or with a fat-containing snack), on an outpatient basis, for 14 days. Subjects returned to the study center during the treatment and follow-up periods as outlined in Table 1.
Subjects self-administered Compound (1) (50 mg or 40 mg [for dose adjustments only as permitted]) or matching placebo orally once daily at approximately 8 PM with food for 14 days. The 50-mg and 40-mg doses was administered as 2 capsules per dose (50 mg, administered as one 30 mg-capsule and one 20-mg capsule, and 40-mg, administered as two 20-mg capsules). Placebo was also administered as 2 capsules to maintain the blind.
The estimand for the primary efficacy analysis was the mean change from baseline in HAM-D total score at Day 15. This was analyzed using a mixed effects model for repeated measures (MMRM); the model included treatment, baseline HAM-D total score, stratification factor, assessment time point, and time point-by-treatment as explanatory variables. All explanatory variables were treated as fixed effects. All post-baseline time points were included in the model. The main comparison was between Compound (1) and placebo at the 15-day time point. Model-based point estimates (e.g., least squares [LS] means, 95% confidence intervals, and p-values) were reported where applicable. An unstructured covariance structure was used to model the within-subject errors. If there was a convergence issue with the unstructured covariance model, Toeplitz, or Autoregressive (1) [AR(1)] covariance structure was used, following this sequence until convergence was achieved. […] When the covariance structure was not UN, the sandwich estimator for the variance covariance matrix was derived, using the EMPIRICAL option in the PROC MIXED statement in SAS.
Similar to those methods described above for the primary endpoint, an MMRM was used for the analysis of the change from baseline in other time points in HAM-D total score, MADRS total score, HAM-A total score, SF-36v2 score, PHQ-9 score, and selected individual items and/or subscale scores in HAM-D for change from baseline.
Generalized estimating equation (GEE) methods were used for the analysis of HAM-D Response (defined as ≥50% reduction from baseline in HAM-D total score) and HAM-D Remission (defined as HAM-D total score of ≤7.0). GEE models included terms for treatment, baseline score, stratification factor, assessment time point, and time point-by-treatment as explanatory variables. The comparison of interest was the difference between Compound (1) and matching placebo at the 15-day time point. Model-based point estimates (e.g., odds ratios), 95% confidence intervals, and p-values were reported.
A GEE method was also used for the analysis of CGI-I Response including terms for treatment, baseline CGI-S score, stratification factor, assessment time point, and time point-by-treatment as explanatory variables.
Compound (1) is an investigational two-week, once-daily oral drug for MDD that represents a potential new class of drug for the management of this common but serious mental health disorder. […]

With `C[C@@]1(O)CC[C@H]2[C@H](CC[C@@H]3[C@@H]2CC[C@]2(C)[C@@H](C(=O)Cn4cc(C#N)cn4)CC[C@@H]32)C1` [Compound (1), 1-(2-((3R,5R,8R,9R,10S,13S,14S,17S)-3-hydroxy-3,13-dimethylhexadecahydro-1H-cyclopenta[a]phenanthren-17-yl)-2-oxoethyl)-1H-pyrazole-4-carbonitrile] the “HAMD-17 Remission odds ratio (95% CI) vs placebo” value (ADT=No, Day 3) was 2.4 (0.91, 6.58), the “HAMD-17 Response odds ratio (95% CI) vs placebo” value (ADT=No, Day 3) was 2.3 (1.36, 3.79) and the “HAMD-17 Remission odds ratio (95% CI) vs placebo” value (ADT=No, Day 8) was 2.1 (1.14, 3.91). For the same compound, the “HAMD-17 Response odds ratio (95% CI) vs placebo” value (ADT=No, Day 8) was 1.7 (1.08, 2.58), the “HAMD-17 Remission odds ratio (95% CI) vs placebo” value (ADT=No, Day 12) was 1.5 (0.92, 2.44) and the “HAMD-17 Response odds ratio (95% CI) vs placebo” value (ADT=No, Day 12) was 1.5 (1.02, 2.35). The “HAMD-17 Remission odds ratio (95% CI) vs placebo” value (ADT=No, Day 15) was 1.1 (0.70, 1.76), the “HAMD-17 Response” value (ADT=No, Day 15) was 55.5 n/N (%) and the “HAMD-17 Response odds ratio (95% CI) vs placebo” value (ADT=No, Day 15) was 1.4 (0.92, 2.12). For the same compound, the “HAMD-17 Remission odds ratio (95% CI) vs placebo” value (ADT=No, Day 21) was 1.0 (0.62, 1.65), the “HAMD-17 Response odds ratio (95% CI) vs placebo” value (ADT=No, Day 21) was 1.1 (0.73, 1.70) and the “HAMD-17 Remission odds ratio (95% CI) vs placebo” value (ADT=No, Day 28) was 0.86 (0.52, 1.41). For the same compound, the “HAMD-17 Response odds ratio (95% CI) vs placebo” value (ADT=No, Day 28) was 1.0 (0.65, 1.55), the “HAMD-17 Remission odds ratio (95% CI) vs placebo” value (ADT=No, Day 35) was 1.1 (0.66, 1.74) and the “HAMD-17 Response odds ratio (95% CI) vs placebo” value (ADT=No, Day 35) was 1.1 (0.72, 1.70). For the same compound, the “HAMD-17 Remission odds ratio (95% CI) vs placebo” value (ADT=No, Day 42) was 1.0 (0.61, 1.55), the “HAMD-17 Response odds ratio (95% CI) vs placebo” value (ADT=No, Day 42) was 1.2 (0.81, 1.90) and the “HAMD-17 Response odds ratio (95% CI) vs placebo” value (ADT=Yes, Day 3) was 1.9 (0.87, 3.98). For the same compound, the “HAMD-17 Response odds ratio (95% CI) vs placebo” value (ADT=Yes, Day 8) was 1.9 (1.01, 3.73), the “HAMD-17 Response odds ratio (95% CI) vs placebo” value (ADT=Yes, Day 12) was 1.9 (0.98, 3.58) and the “HAMD-17 Response” value (ADT=Yes, Day 15) was 57.3 n/N (%). For the same compound, the “HAMD-17 Response odds ratio (95% CI) vs placebo” value (ADT=Yes, Day 15) was 1.4 (0.74, 2.71), the “HAMD-17 Response odds ratio (95% CI) vs placebo” value (ADT=Yes, Day 21) was 1.8 (0.95, 3.53) and the “HAMD-17 Response odds ratio (95% CI) vs placebo” value (ADT=Yes, Day 28) was 1.4 (0.72, 2.64). The “HAMD-17 Response odds ratio (95% CI) vs placebo” value (ADT=Yes, Day 35) was 1.4 (0.76, 2.75), the “HAMD-17 Response odds ratio (95% CI) vs placebo” value (ADT=Yes, Day 42) was 1.7 (0.91, 3.34) and the “CGI-Improvement Response odds ratio vs placebo” value (Day 3) was 1.8 (0.0032). For the same compound, the “CGI-Severity LS mean TRT diff vs placebo” value (Day 3) was −0.4 (<0.0001), the “HAMD-17 total score LS mean (SE) CFB” value (Day 3) was −9.8 (0.38) and the “HAMD-17 total score LS mean TRT diff vs placebo” value (Day 3) was −3.0 (<0.0001) points. The “CGI-Improvement Response odds ratio vs placebo” value (Day 8) was 1.9 (0.0005), the “CGI-Severity LS mean TRT diff vs placebo” value (Day 8) was −0.4 (0.0001) and the “HAM-A total score LS mean (SE) CFB” value (Day 8) was −8.7 (0.40). For the same compound, the “HAMD-17 total score LS mean (SE) CFB” value (Day 8) was −12.0 (0.45), the “MADRS total score LSM (SE) CFB” value (Day 8) was −14.6 (0.69) and the “CGI-Improvement Response odds ratio vs placebo” value (Day 12) was 1.6 (0.0101). The “CGI-Severity LS mean TRT diff vs placebo” value (Day 12) was −0.3 (0.0014), the “CGI-Improvement Response odds ratio vs placebo” value (Day 15) was 1.5 (0.0191) and the “HAM-A total score LS mean (SE) CFB” value (Day 15) was −10.4 (0.43). For the same compound, the “HAMD-17 Anxiety subscale LSM difference vs placebo” value (Day 15) was −0.9 points, the “HAMD-17 Bech-6 subscale LSM difference vs placebo” value (Day 15) was −3.2 points and the “HAMD-17 Core Depression subscale LSM difference vs placebo” value (Day 15) was −2.0 points. For the same compound, the “HAMD-17 Maier subscale LSM difference vs placebo” value (Day 15) was −3.0 points, the “HAMD-17 early insomnia item mean reduction from baseline” value (Day 15) was −1.0 and the “HAMD-17 late insomnia item mean reduction from baseline” value (Day 15) was −0.8. For the same compound, the “HAMD-17 middle insomnia item mean reduction from baseline” value (Day 15) was −1.2, the “HAMD-17 total score LS mean (SE) CFB” value (Day 15) was −14.1 (0.51) and the “MADRS Response (≥50% reduction) rate” value (Day 15) was 51.6%. For the same compound, the “MADRS total score LS mean TRT diff vs placebo” value (Day 15) was −2.4 points and −2.4 (0.0238) points, the “SF-36v2 Bodily Pain (BP) CFB” value (Day 15) was 5.26 and the “SF-36v2 General Health (GH) CFB” value (Day 15) was 4.51. For the same compound, the “SF-36v2 Mental Health (MH) CFB” value (Day 15) was 14.45, the “SF-36v2 Physical-Functioning (PF) CFB” value (Day 15) was 3.41 and the “SF-36v2 Role-Emotional (RE) CFB” value (Day 15) was 14.19. The “SF-36v2 Role-Physical (RP) CFB” value (Day 15) was 3.45, the “SF-36v2 Social-Functioning (SF) CFB” value (Day 15) was 12.89 and the “SF-36v2 Vitality (V) CFB” value (Day 15) was 13.12. The “SF-36v2 least-squares mean vitality score increase versus placebo” value (Day 15) was 3.1, the “HAMD-17 total score LS mean TRT diff vs placebo” value (Day 15 (primary endpoint)) was −1.7 points and −1.7 (0.0141) points and the “HAMD-17 LSM treatment difference vs placebo, subgroup” value (“HAMD-17 LSM treatment difference” below) (Day 15, ADT use No (monotherapy)) was −1.98. For the same compound, the “HAMD-17 LSM treatment difference” value (Day 15, ADT use Yes (combination)) was −1.21, the “HAMD-17 LSM treatment difference” value (Day 15, age 18-24 years) was −1.67 and the “HAMD-17 LSM treatment difference” value (Day 15, age 25-50 years) was −1.96. The “HAMD-17 LSM treatment difference” value (Day 15, age 51-64 years) was −1.18, the “HAMD-17 LSM treatment difference” value (Day 15, baseline BMI 18.5-24.9 kg/m^2) was −1.02 and the “HAMD-17 LSM treatment difference” value (Day 15, baseline BMI 25-29.9 kg/m^2) was −3.94. For the same compound, the “HAMD-17 LSM treatment difference” value (Day 15, baseline BMI ≥30 kg/m^2) was −1.04, the “HAMD-17 LSM treatment difference” value (Day 15, baseline HAMD-17TS <26) was −1.25 and the “HAMD-17 LSM treatment difference” value (Day 15, baseline HAMD-17TS ≥26) was −1.91. For the same compound, the “HAMD-17 LSM treatment difference” value (Day 15, female) was −1.58, the “HAMD-17 LSM treatment difference” value (Day 15, male) was −1.81 and the “HAMD-17 LSM treatment difference” value (Day 15, race Black) was −2.20. For the same compound, the “HAMD-17 LSM treatment difference” value (Day 15, race Other) was −4.22, the “HAMD-17 LSM treatment difference” value (Day 15, race White) was −1.47 and the “Day 15 HAMD-17 improvement maintained on average” value (Day 28) was 81.7%. The “Day 15 HAMD-17 improvement maintained on average” value (Day 42) was 86.1%, the “Day 15 MADRS improvement maintained on average” value (Day 28) was 85.2% and the “Day 15 MADRS improvement maintained on average” value (Day 42) was 87.6%. For the same compound, the “Patients retaining ≥65% of Day 15 HAMD-17 improvement” value (Day 21) was 81.0%, the “MADRS total score LS mean TRT diff vs placebo” value (Day 28) was −1.5 and the “MADRS total score LSM (SE) CFB” value (Day 28) was −16.4 (0.80). The “HAMD-17 total score LS mean (SE) CFB” value (Day 42) was −13.5 (0.55), the “HAMD-17 total score LS mean TRT diff vs placebo” value (Day 42) was −0.9 and the “MADRS total score LS mean TRT diff vs placebo” value (Day 42) was −1.3. For the same compound, the “MADRS total score LSM (SE) CFB” value (Day 42) was −17.5 (0.83), the “Patients retaining ≥65% of Day 15 HAMD-17 improvement” value (Day 42) was 75.4% and 74.9% and the “HAMD-17 Remission (HAMD-17≤7) rate” value (overall, Day 3) was 7.6%. The “HAMD-17 Remission odds ratio vs placebo” value (overall, Day 3) was 3.57, the “HAMD-17 Response (≥50% reduction) rate” value (overall, Day 3) was 29.3% and the “HAMD-17 Response odds ratio vs placebo” value (overall, Day 3) was 2.14. For the same compound, the “HAMD-17 Response (≥50% reduction) rate” value (overall, Day 15) was 56.0% and the “HAMD-17 Response odds ratio vs placebo” value (overall, Day 15) was 1.40.
